Reference: US12122763B2, “Substituted piperidines for androgen receptor degradation” (UBIX THERAPEUTICS, INC., priority 2020, dated 2024)

Target: T1, Androgen Receptor (AR) protein (Homo sapiens, UniProt P10275, T878A)
T1 construct: endogenous in cells; host or cells: LNCaP
Experiment: Androgen Receptor (AR) protein degradation assay in LNCaP cells, western blotting
Type: cell-based
Details: 20 h; for inhibition at 0.01 µM: 0.01 μM compound; for inhibition at 0.1 µM: 0.1 μM compound; for inhibition at 1 µM: 1 μM compound; for inhibition at 10 µM: 10 μM compound
Outline: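 LNCaP prostate cancer cells were cultured 3 days, then treated with compound for 20 h. Lysates in 1% SDS buffer were normalised by BCA, and 8 μg protein was run on 4–12% Bis-Tris gels. AR was immunoblotted with chemiluminescence, using GAPDH/β-actin as loading controls.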

T1 sequence (P10275 whole entry T878A): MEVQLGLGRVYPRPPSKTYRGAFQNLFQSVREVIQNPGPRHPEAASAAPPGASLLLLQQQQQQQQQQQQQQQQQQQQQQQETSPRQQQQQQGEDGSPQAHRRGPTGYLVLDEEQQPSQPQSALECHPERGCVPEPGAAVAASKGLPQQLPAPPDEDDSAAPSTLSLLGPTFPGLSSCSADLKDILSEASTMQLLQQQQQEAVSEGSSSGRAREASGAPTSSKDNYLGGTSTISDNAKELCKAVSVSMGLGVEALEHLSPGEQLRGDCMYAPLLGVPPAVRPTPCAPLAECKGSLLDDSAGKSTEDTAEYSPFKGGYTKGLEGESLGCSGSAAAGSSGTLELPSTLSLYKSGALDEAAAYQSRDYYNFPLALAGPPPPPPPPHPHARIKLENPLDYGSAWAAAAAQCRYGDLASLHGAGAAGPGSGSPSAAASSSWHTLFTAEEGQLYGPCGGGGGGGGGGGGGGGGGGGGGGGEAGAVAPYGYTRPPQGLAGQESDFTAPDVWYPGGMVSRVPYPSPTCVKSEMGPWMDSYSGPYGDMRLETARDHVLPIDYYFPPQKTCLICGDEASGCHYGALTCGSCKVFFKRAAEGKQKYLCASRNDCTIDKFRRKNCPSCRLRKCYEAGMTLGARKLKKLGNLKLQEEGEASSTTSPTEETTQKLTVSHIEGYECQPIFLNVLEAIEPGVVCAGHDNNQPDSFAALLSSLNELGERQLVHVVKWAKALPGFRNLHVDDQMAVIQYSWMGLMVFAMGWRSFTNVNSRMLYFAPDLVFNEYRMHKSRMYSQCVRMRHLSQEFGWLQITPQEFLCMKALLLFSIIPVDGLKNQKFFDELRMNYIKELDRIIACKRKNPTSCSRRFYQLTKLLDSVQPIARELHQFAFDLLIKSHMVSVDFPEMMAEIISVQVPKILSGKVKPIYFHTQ
T1 sequence (Q96SW2 whole entry partner): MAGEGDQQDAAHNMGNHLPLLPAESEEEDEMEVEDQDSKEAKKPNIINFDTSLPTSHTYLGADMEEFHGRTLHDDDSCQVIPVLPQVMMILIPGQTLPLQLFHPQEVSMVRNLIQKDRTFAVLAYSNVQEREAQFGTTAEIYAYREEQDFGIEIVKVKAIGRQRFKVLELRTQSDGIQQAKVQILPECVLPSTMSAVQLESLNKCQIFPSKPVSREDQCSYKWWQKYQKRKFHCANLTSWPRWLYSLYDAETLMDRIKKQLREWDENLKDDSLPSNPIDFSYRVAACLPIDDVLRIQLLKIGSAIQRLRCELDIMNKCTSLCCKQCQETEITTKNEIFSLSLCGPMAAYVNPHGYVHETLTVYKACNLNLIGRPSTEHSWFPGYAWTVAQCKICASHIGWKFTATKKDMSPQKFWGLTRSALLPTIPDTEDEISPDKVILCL

| SMILES | inhibition at 0.01 µM | inhibition at 0.1 µM | inhibition at 1 µM | inhibition at 10 µM |
| --- | --- | --- | --- | --- |
| N#Cc1ccc(N2CCC(C(=O)Nc3ccc(N4CCN(CCCCOc5ccc6c(c5)C(=O)N(C5CCC(=O)NC5=O)C6=O)CC4)cn3)CC2)cc1Cl (stereo not drawn) [Example 116, 1-(3-chloro-4-cyanophenyl)-N-(5-(4-(4-((2-(2,6-dioxopiperidin-3-yl)-1,3-dioxoisoindolin-5-yl)oxy)butyl)piperazin-1-yl)pyridin-2-yl)piperidine-4-carboxamide] | 24% | 43% | 53% |  |
| N#Cc1ccc(N2CCC(C(=O)Nc3ccc(N4CCN(CCOC5CCN(c6ccc7c(c6)C(=O)N(C6CCC(=O)NC6=O)C7=O)CC5)CC4)cn3)CC2)cc1C(F)(F)F (stereo not drawn) [Example 117, 1-(4-cyano-3-(trifluoromethyl)phenyl)-N-(5-(4-(2-((1-(2-(2,6-dioxopiperidin-3-yl)-1,3-dioxoisoindolin-5-yl)piperidin-4-yl)oxy)ethyl)piperazin-1-yl)pyridin-2-yl)piperidine-4-carboxamide] | 35% | 84% | 94% |  |
| N#Cc1ccc(N2CCC(C(=O)Nc3ccc(N4CCN(CCOC5CCN(c6ccc7c(c6)C(=O)N(C6CCC(=O)NC6=O)C7=O)CC5)CC4)cn3)CC2)cc1Cl (stereo not drawn) [Example 118, 1-(3-chloro-4-cyanophenyl)-N-(5-(4-(2-((1-(2-(2,6-dioxopiperidin-3-yl)-1,3-dioxoisoindolin-5-yl)piperidin-4-yl)oxy)ethyl)piperazin-1-yl)pyridin-2-yl)piperidine-4-carboxamide] | 34% | 62% | 88% |  |
| N#Cc1ccc(N2CCC(C(=O)Nc3ccc(N4CCN(CCC5CCN(c6ccc7c(c6)C(=O)N(C6CCC(=O)NC6=O)C7=O)CC5)CC4)cn3)CC2)cc1C(F)(F)F (stereo not drawn) [Example 119, 1-(4-cyano-3-(trifluoromethyl)phenyl)-N-(5-(4-(2-(1-(2-(2,6-dioxopiperidin-3-yl)-1,3-dioxoisoindolin-5-yl)piperidin-4-yl)ethyl)piperazin-1-yl)pyridin-2-yl)piperidine-4-carboxamide] | 21% | 90% | 26% |  |
| N#Cc1ccc(N2CCC(C(=O)Nc3ccc(N4CCN(CCC5CCN(c6ccc7c(c6)C(=O)N(C6CCC(=O)NC6=O)C7=O)CC5)CC4)cn3)CC2)cc1Cl (stereo not drawn) [Example 120, 1-(3-chloro-4-cyanophenyl)-N-(5-(4-(2-(1-(2-(2,6-dioxopiperidin-3-yl)-1,3-dioxoisoindolin-5-yl)piperidin-4-yl)ethyl)piperazin-1-yl)pyridin-2-yl)piperidine-4-carboxamide] | 0% | 88% | 96% |  |
| N#Cc1ccc(N2CCC(C(=O)Nc3ccc(N4CC5(CCN(CC6CCN(c7ccc8c(c7)C(=O)N(C7CCC(=O)NC7=O)C8=O)CC6)CC5)C4)cn3)CC2)cc1C(F)(F)F (stereo not drawn) [Example 121, 1-(4-cyano-3-(trifluoromethyl)phenyl)-N-(5-(7-((1-(2-(2,6-dioxopiperidin-3-yl)-1,3-dioxoisoindolin-5-yl)piperidin-4-yl)methyl)-2,7-diazaspiro[3.5]nonan-2-yl)pyridin-2-yl)piperidine-4-carboxamide] | 81% | 98% | 98% |  |
| N#Cc1ccc(N2CCC(C(=O)Nc3ccc(N4CC5(CCN(CC6CCN(c7ccc8c(c7)C(=O)N(C7CCC(=O)NC7=O)C8=O)CC6)CC5)C4)cn3)CC2)cc1Cl (stereo not drawn) [Example 122, 1-(3-chloro-4-cyanophenyl)-N-(5-(7-((1-(2-(2,6-dioxopiperidin-3-yl)-1,3-dioxoisoindolin-5-yl)piperidin-4-yl)methyl)-2,7-diazaspiro[3.5]nonan-2-yl)pyridin-2-yl)piperidine-4-carboxamide] | 71% | 76% | 74% |  |
| N#Cc1ccc(N2CCC(C(=O)Nc3ccc(N4CC5(CCN(CC6CN(c7ccc8c(c7)C(=O)N(C7CCC(=O)NC7=O)C8=O)C6)CC5)C4)cn3)CC2)cc1C(F)(F)F (stereo not drawn) [Example 123, 1-(4-cyano-3-(trifluoromethyl)phenyl)-N-(5-(7-((1-(2-(2,6-dioxopiperidin-3-yl)-1,3-dioxoisoindolin-5-yl)azetidin-3-yl)methyl)-2,7-diazaspiro[3.5]nonan-2-yl)pyridin-2-yl)piperidine-4-carboxamide] | 55% | 91% | 97% |  |
| N#Cc1ccc(N2CCC(C(=O)Nc3ccc(N4CC5(CCN(CC6CN(c7ccc8c(c7)C(=O)N(C7CCC(=O)NC7=O)C8=O)C6)CC5)C4)cn3)CC2)cc1Cl (stereo not drawn) [Example 124, 1-(3-chloro-4-cyanophenyl)-N-(5-(7-((1-(2-(2,6-dioxopiperidin-3-yl)-1,3-dioxoisoindolin-5-yl)azetidin-3-yl)methyl)-2,7-diazaspiro[3.5]nonan-2-yl)pyridin-2-yl)piperidine-4-carboxamide] | 52% | 88% | 96% |  |
| N#Cc1ccc(N2CCC(C(=O)Nc3ccc(N4CC5(CCN(C[C@H]6CCN(c7ccc8c(c7)C(=O)N(C7CCC(=O)NC7=O)C8=O)C6)CC5)C4)cn3)CC2)cc1C(F)(F)F (stereo partly drawn) [Example 125, 1-(4-cyano-3-(trifluoromethyl)phenyl)-N-(5-(7-(((3R)-1-(2-(2,6-dioxopiperidin-3-yl)-1,3-dioxoisoindolin-5-yl)pyrrolidin-3-yl)methyl)-2,7-diazaspiro[3.5]nonan-2-yl)pyridin-2-yl)piperidine-4-carboxamide] | 25% | 84% | 92% |  |
| N#Cc1ccc(N2CCC(C(=O)Nc3ccc(N4CC5(CCN(C[C@@H]6CCN(c7ccc8c(c7)C(=O)N(C7CCC(=O)NC7=O)C8=O)C6)CC5)C4)cn3)CC2)cc1C(F)(F)F (stereo partly drawn) [Example 126, 1-(4-cyano-3-(trifluoromethyl)phenyl)-N-(5-(7-(((3S)-1-(2-(2,6-dioxopiperidin-3-yl)-1,3-dioxoisoindolin-5-yl)pyrrolidin-3-yl)methyl)-2,7-diazaspiro[3.5]nonan-2-yl)pyridin-2-yl)piperidine-4-carboxamide] | 51% | 89% | 96% |  |
| N#Cc1ccc(N2CCC(C(=O)Nc3ccc(N4CCC5(CC4)CN(CC4CCN(c6ccc7c(c6)C(=O)N(C6CCC(=O)NC6=O)C7=O)CC4)C5)cn3)CC2)cc1C(F)(F)F (stereo not drawn) [Example 127, 1-(4-cyano-3-(trifluoromethyl)phenyl)-N-(5-(2-((1-(2-(2,6-dioxopiperidin-3-yl)-1,3-dioxoisoindolin-5-yl)piperidin-4-yl)methyl)-2,7-diazaspiro[3.5]nonan-7-yl)pyridin-2-yl)piperidine-4-carboxamide] | 34% | 52% | 66% |  |
| N#Cc1ccc(N2CCC(C(=O)Nc3ccc(N4CCC5(CC4)CN(CC4CN(c6ccc7c(c6)C(=O)N(C6CCC(=O)NC6=O)C7=O)C4)C5)cn3)CC2)cc1C(F)(F)F (stereo not drawn) [Example 128, 1-(4-cyano-3-(trifluoromethyl)phenyl)-N-(5-(2-((1-(2-(2,6-dioxopiperidin-3-yl)-1,3-dioxoisoindolin-5-yl)azetidin-3-yl)methyl)-2,7-diazaspiro[3.5]nonan-7-yl)pyridin-2-yl)piperidine-4-carboxamide] | 28% | 43% | 61% |  |
| N#Cc1ccc(N2CCC(C(=O)Nc3ccc(N4CCC5(CC4)CN(C(=O)C4CCN(c6ccc7c(c6)C(=O)N(C6CCC(=O)NC6=O)C7=O)CC4)C5)cn3)CC2)cc1C(F)(F)F (stereo not drawn) [Example 129, 1-(4-cyano-3-(trifluoromethyl)phenyl)-N-(5-(2-(1-(2-(2,6-dioxopiperidin-3-yl)-1,3-dioxoisoindolin-5-yl)piperidine-4-carbonyl)-2,7-diazaspiro[3.5]nonan-7-yl)pyridin-2-yl)piperidine-4-carboxamide] | 11% | 42% | 71% |  |
| N#Cc1ccc(N2CCC(C(=O)Nc3ccc(N4CCN(CC5CCN(C(=O)CNc6ccc7c(c6)C(=O)N(C6CCC(=O)NC6=O)C7=O)CC5)CC4)cn3)CC2)cc1C(F)(F)F (stereo not drawn) [Example 130, 1-(4-cyano-3-(trifluoromethyl)phenyl)-N-(5-(4-((1-((2-(2,6-dioxopiperidin-3-yl)-1,3-dioxoisoindolin-5-yl)glycyl)piperidin-4-yl)methyl)piperazin-1-yl)pyridin-2-yl)piperidine-4-carboxamide] | 78% | 95% | 95% | 93% |
| N#Cc1ccc(N2CCC(C(=O)Nc3ccc(C#CC4CCN(CC5CCN(c6ccc7c(c6)C(=O)N(C6CCC(=O)NC6=O)C7=O)CC5)CC4)cn3)CC2)cc1C(F)(F)F (stereo not drawn) [Example 131, 1-(4-cyano-3-(trifluoromethyl)phenyl)-N-(5-((1-((1-(2-(2,6-dioxopiperidin-3-yl)-1,3-dioxoisoindolin-5-yl)piperidin-4-yl)methyl)piperidin-4-yl)ethynyl)pyridin-2-yl)piperidine-4-carboxamide] | 28% | 66% | 82% | 87% |
| N#Cc1ccc(N2CCC(C(=O)Nc3ccc(C#CC4CCN(CC5CN(c6ccc7c(c6)C(=O)N(C6CCC(=O)NC6=O)C7=O)C5)CC4)cn3)CC2)cc1C(F)(F)F (stereo not drawn) [Example 132, 1-(4-cyano-3-(trifluoromethyl)phenyl)-N-(5-((1-((1-(2-(2,6-dioxopiperidin-3-yl)-1,3-dioxoisoindolin-5-yl)azetidin-3-yl)methyl)piperidin-4-yl)ethynyl)pyridin-2-yl)piperidine-4-carboxamide] | 31% | 67% | 72% | 77% |
